Where a SMILES comes first, the peptide text is derived from it.
Legend:
[1] = system: u-proMMP-7; conditions: cited from earlier work
Text: Chaperones are potential drug candidates for folding diseases, such as AD and Parkinson’s disease, which are caused by protein aggregation. In recent years, research has focused on low-molecular-weight chemical chaperones rather than on chaperone proteins. Biochemical methods are used to screen for chemical chaperones with the aim of developing therapeutic agents for lysosomal diseases, which are ...

[2] = target: T1, Aβ25-35 (Homo sapiens, UniProt P05067); test: ThT assay, inhibition of Aβ25-35 aggregation; assay type: biochemical; conditions: for IC50: 100 µM Aβ25-35, PBS, 37 °C, 4 h, ThT fluorescence, n = 3
T1 construct: made in house; host or cells: chemical solid-phase (Fmoc) peptide synthesis; no expression host
Description: To perform the ThT assay to evaluate aggregation, Aβ25-35 (final concentration of 100 μM) was incubated with ThT solution (final concentration of 10 μM) in Phosphate-buffered saline (PBS), pH 7.4. The ThT signal was monitored by measuring the fluorescence emission at 480 nm for 10 s when excited at 444 nm using Cytation 5 (BioTek, Vermont, WI, USA) at 37 °C [41]. Aggregated Aβ25-35 (100 μM) peptides were prepared by incubating for 18 h in PBS.
We also evaluated inhibitory effects in a time-dependent manner. The fluorescence intensity of the reaction mixture of peptide and Aβ25-35 was traced for 120 min at 15 min intervals.
Therefore, we evaluated the concentration-dependent aggregation inhibitory effect of YS-RD11 and YS-RE16 on Aβ25-35. Various concentrations of the peptides (YS-RD11; 1 to 100 µM, YS-RE16; 0.01 to 10 µM) were incubated independently with 100 µM Aβ25-35 (final con. 100 µM) in PBS at 37 °C. The fluorescence intensity of reaction mixtures was measured after 4 h.

[3] = parameters: method as in PMID 30930080; conditions: structure–activity relationship of JAL-AK22; cited from earlier work
[4] = system: Aβ42; parameters: method as in 2 sources, ref 28 = [28]; PMID 30930080; doi:10.1016/j.peptides.2019.03.005; 28. Nakamura R. Konishi M. Taniguchi M. Hatakawa Y. Akizawa T. The discovery of shorter synthetic proteolytic peptides derived from Tob1 protein Peptides 2019 116 71 77 10.1016/j.peptides.2019.03.005 ||| ref 29, 30, 31 = [29]; PMID 31687556; doi:10.1016/j.heliyon.2019.e02454; 29. Hatakawa Y. Nakamura R. Konishi M. Sakane T. Saito M. Akizawa T. Catalytides derived from the Box A region in the ANA/BTG3 protein cleave amyloid-β fragment peptide Heliyon 2019 5 e02454 10.1016/j || [30]; PMID 33816760; doi:10.1002/trc2.12146; 30. Hatakawa Y. Nakamura R. Konishi M. Sakane T. Tanaka A. Matsuda A. Saito M. Akizawa T. Amyloid beta cleavage by ANA-TA9, a synthetic peptide from the ANA/BTG3 Box A region Alzheimers Dement. Transl || [31]; 31. Nakamura R. Konishi M. Hatakawa Y. Saito M. Akizawa T. The Novel Catalytic Peptide, A Synthetic Nona-Peptide (JAL-TA9) Derived from Tob1 Protein, Digests the Amyloid-β Peptide J. R. Sci. 2019 1 30; conditions: cited from earlier work
[5] = system: A549 cells; test: A549 cell viability, WST-8 assay; conditions: 0.1 mg/mL peptide, 72 h, WST-8, n = 4; compared with FLAG peptide
Description: The human lung cancer cell line, A549, was obtained from the Riken Cell Bank (Ibaraki, Japan). The cells were cultured as described previously [30, 43]. Briefly, A549 cells (4 × 10^3 cells/well) were seeded into 96-well plates and maintained in Dulbecco’s modified Eagle’s medium (DMEM) supplemented with 10% fetal bovine serum, 100 units/mL penicillin, and 100 μg/mL streptomycin at 37 °C in a humidified atmosphere with 5% CO2. […] After incubation for 72 h, the medium was exchanged for 110 μL of medium containing 10 μL WST-8 (water-soluble tetrazolium salt WST-8) reagent and 100 μL DMEM). The cells were further incubated for 1 h, the absorbance was determined at 450 nm with a reference wavelength of 620 nm using a SPECTRA max Plus384 microplate reader (Molecular Devices, LCC, San Jose, CA, USA).

[6] = Solubility; assay type: physicochemical; conditions: stated without data
[7] = in vivo; cited from earlier work
[8] = system: aggregated Aβ25-35; test: SEM, resolution of aggregated Aβ25-35; assay type: biochemical
Description: Aβ25-35 (100 μM) was incubated with YS-RD11 or YS-RE16 in PBS at 37 °C. The reaction mixture was centrifuged at 9000 rpm for 5 min. The supernatant was removed, 200 μL of MilliQ water was added and mixed, and the solution was centrifuged at 9000 rpm for 5 min to obtain a sample for SEM [42]. Aggregated Aβ25-35 (100 μM) peptides were prepared by incubating for 18 h in PBS.
Next, the resolving effect of YS-RD11, YS-RE16, and YS-DE6 on aggregated Aβ25-35 was assessed by observing its shape using SEM.

[9] = system: patients with AD; conditions: cited from earlier work
Text: Alzheimer’s disease (AD) is the most common age-related neurodegenerative disorder worldwide. Amyloid-β (Aβ) 42, which is produced by the cleavage of amyloid precursor protein (APP) by β- or γ-secretases, is considered to cause AD [1, 2, 3]. […] Thus, the current main strategy is to develop Aβ antibodies and vaccines aimed at inhibiting Aβ aggregation. […] Lecanemab, the latest Aβ ant ...

## YKNMRETLVYLTHLDYDDTE [YS-YE20]
[1]; screening of 3000 types of peptides, no reference given
  activation of u-proMMP7: activates u-proMMP7 by acting as a chaperone rather than Catalytide

## YKNMRETLVYLTHLD [YS-YD15]
[2]; ThT, 100 μM peptides, PBS
  aggregation inhibitory activity against Aβ25-35 (conclusion in words): weak inhibitory activity

## YKGSGFRMI [JAL-TA9]
[3]
  auto-proteolytic activity: strongest auto-proteolytic activity
[4]
  cleavage of Aβ42: cleaved Aβ42 with serine protease-like activity
  cleavage of soluble (a-Aβ42) and solid insoluble (s-Aβ42) Aβ42: cleaved both the authentic soluble form Aβ42 (a-Aβ42) and the solid insoluble form Aβ42 (s-Aβ42) in the central region

## CC(C)C[C@H](NC(=O)[C@H](Cc1c[nH]cn1)NC(=O)[C@@H](NC(=O)[C@H](CC(C)C)NC(=O)[C@H](Cc1ccc(O)cc1)NC(=O)[C@@H](NC(=O)[C@H](CC(C)C)NC(=O)[C@@H](NC(=O)[C@H](CCC(=O)O)NC(=O)[C@@H](N)CCCNC(=N)N)[C@@H](C)O)C(C)C)[C@@H](C)O)C(=O)N[C@@H](CC(=O)O)C(=O)N[C@@H](Cc1ccc(O)cc1)C(=O)N[C@@H](CC(=O)O)C(=O)N[C@@H](CC(=O)O)C(=O)N[C@H](C(=O)N[C@@H](CCC(=O)O)C(=O)O)[C@@H](C)O [YS-RE16] (H-RETLVYLTHLDYDDTE-OH)
[2]
  IC50: ~0.5 µM
[5]
  effect on growth of A549 cells: did not show a significant inhibitory effect on the growth of A549 cells

## CC(C)C[C@H](NC(=O)[C@H](Cc1c[nH]cn1)NC(=O)[C@@H](NC(=O)[C@H](CC(C)C)NC(=O)[C@H](Cc1ccc(O)cc1)NC(=O)[C@@H](NC(=O)[C@H](CC(C)C)NC(=O)[C@@H](NC(=O)[C@H](CCC(=O)O)NC(=O)[C@@H](N)CCCNC(=N)N)[C@@H](C)O)C(C)C)[C@@H](C)O)C(=O)N[C@@H](CC(=O)O)C(=O)O [YS-RD11] (H-RETLVYLTHLD-OH)
[2]
  IC50: ~1.5 µM
[5]
  effect on growth of A549 cells: did not show a significant inhibitory effect on the growth of A549 cells
[6]
  solubility: high solubility

## oxytocin: the peptide oxytocin
[7]
  drug delivery to the brain via nasal application: direct and efficient drug delivery

## DYDDTE [YS-DE6, peptide derived from YS-RE20, DYDDTE]
[8]; 100 µM peptide + 100 µM aggregated Aβ25-35 (18 h), PBS
  amyloid fibrils observed by SEM, peptide 100 µM: a cluster of amyloid fibrils
[8]; YS-DE6 as negative control
  effect on Aβ25-35 aggregation, negative control: did not show any effect against Aβ25-35 aggregation

## KWEGHWYPEKPYKGSGFRCIHI [JAL-AK22, reference compound]
[1]
  activation of proMMP-7: activates proMMP-7 by cleaving the pro-domain of MMP-7

B1: lecanemab: latest Aβ antibody drug approved by the U.S. Food and Drug Administration (antibody, chains of the INN, looked up, V domains shown)
VH: EVQLVESGGGLVQPGGSLRLSCSASGFTFSSFGMHWVRQAPGKGLEWVAYISSGSSTIYYGDTVKGRFTISRDNAKNSLFLQMSSLRAEDTAVYYCAREGGYYYGRSYYTMDYWGQGTTVTVSS
VL: DVVMTQSPLSLPVTPGAPASISCRSSQSIVHSNGNTYLEWYLQKPGQSPKLLIYKVSNRFSGVPDRFSGSGSGTDFTLRISRVEAEDVGIYYCFQGSHVPPTFGPGTKLEIK
[9]
  side effects: cerebral edema and cerebral microhemorrhage
[9]; patients with AD, no reference at this sentence
  clinical effectiveness by AD stage: potentially effective in the early stages of AD but is less effective in the later stages
